In test [1] the test system is Pyrenophora teres. The test can be described thus: Pyrenophora teres test (in vitro)/microtitre plates. It counts as cell-based. To be noted: 120 h, 5 days incubation, single active compound, read-out: % efficacy. As to the method:
The microtest is carried out in microtitre plates using Potato Dextrose Broth (PDB) as liquid test medium. The active compounds are used as technical-grade a.i., dissolved in methanol. For inoculation, a spore suspension of Pyrenophora teres is used. After 5 days of incubation in the dark and with shaking (10 Hz), the transparency in each filled cavity of the microtitre plates is determined with the aid of a spectrophotometer.

Test [2] deals with Phaedon cochleariae. The test can be described thus: Phaedon cochleariae larvae test. To be noted: sprayed cabbage leaves.
Test [3] deals with Rhizoctonia solani. The test can be described thus: Rhizoctonia solani test (in vitro)/microtitre plates. It counts as cell-based. To be noted: 168 h, 7 days incubation, single active compound, read-out: % efficacy. On the procedure:
The microtest is carried out in microtitre plates using Potato Dextrose Broth (PDB) as liquid test medium. The active compounds are used as technical-grade a.i., dissolved in acetone. For inoculation, a mycelium suspension of Rhizoctonia solani is used. After 7 days of incubation in the dark and with shaking (10 Hz), the transparency in each filled cavity of the microtitre plates is determined with the aid of a spectrophotometer.

Structures are written as SMILES.

3 compounds from patent US8598079B2, “Active compound combinations” (priority 2010, dated 2013) can be followed below.

Turning to `CNC(=O)c1cc(Cl)cc(C)c1NC(=O)c1cc(Br)nn1-c1ncccc1Cl` [Rynaxypyr, 3-bromo-N-[4-chloro-2-methyl-6-(methylcarbamoyl)phenyl]-1-(3-chloropyridin-2-yl)-1H-pyrazole-5-carboxamide], in test [1], the Emax at 1 ppm came out at 11%. The “Kill in % after 3 d” value in test [2] (4 ppm) is listed as 80%.

For the compound `CC(c1ccc(C(F)(F)F)nc1)S(C)(=O)=NC#N` (centres unmarked) [sulfoxaflor], in test [3], the Emax at 0.3 ppm is 0%. Besides, in test [2] (100 ppm), the “Kill in % after 1 d” value was 25%.

For `Cc1nn(C)c(F)c1C(=O)Nc1ccccc1C(C)CC(C)C` (centres unmarked) [penflufen, N-[2-(1,3-dimethylbutyl)phenyl]-5-fluoro-1,3-dimethyl-1H-pyrazole-4-carboxamide], the Emax at 0.3 ppm in test [3] came out at 20%. For the same compound, in test [1], the Emax at 1 ppm stood at 26%. The “Kill in % after 3 d” value in test [2] (200 ppm) is on record as 0%. The “Kill in % after 1 d” value in test [2] (500 ppm) was 0%.
